The values below come from US20130345205A1, “SUBSTITUTED BICYCLIC ARALKYL PYRAZOLE LACTAM ANALOGS AS ALLOSTERIC MODULATORS OF MGLUR5 RECEPTORS” (Vanderbilt University, priority 2012, published 2013).

Usually Emax stands for the maximal effect, on the per cent scale that the assay sets. The term EC50 denotes the midpoint of the concentration-response curve. By melting point is commonly meant the temperature, or range, at which the solid turns liquid.

One data set addresses human mGluR5 (Homo sapiens, UniProt P41594). Put plainly: Cell-based functional Ca2+ mobilization assay (FDSS), potentiation of glutamate EC20 response. Conditions: H10H cell-line (HEK, recombinant human mGluR5); for Emax: glutamate EC20, maximum average response at a single concentration, percent of maximal glutamate response; for EC50: positive allosteric modulation in presence of glutamate EC20, concentration in mol/L. The text has this: Human mGluR5a cDNA in pCMV6-XL6 mammalian expression plasmid was purchased from OriGene Technologies, Inc. (catalogue number SC326357) and subcloned into pcDNA3.1(−). Human embryonic kidney (HEK) 293A cells were then transfected with human mGluR5a pcDNA3.1(−) using LipofectAmine2000 (Invitrogen) and monoclones were selected and tested for functional response using a Ca^2+ mobilization assay. Monoclones were named for the species (“H” for human) plus the location on the plate (e.g. “10H”).
HEK cells transfected with the human mGluR5a receptor (H10H or H12H cell line) were plated at 15,000 cells/well in clear-bottomed poly-D-lysine-coated assay plates (BD Falcon) in glutamate-glutamine-free growth medium and incubated overnight at 37° C. and 5% CO2. Cell-lines used were either the H10H or H12H cell-lines expressing the human mGluR5 receptor. The following day, the growth medium was removed and the cells were washed with assay buffer containing 1× Hank's balanced salt solution (Invitrogen, Carlsbad, Calif.), 20 mM HEPES, 2.5 mM probenecid, pH 7.4 and left with 20 μL of this reagent. Following this step, the cells were loaded with calcium indicator dye, fluo-4 AM, to a final concentration of 2 μM and incubated for 40-45 min at 37° C. The dye solution was removed and replaced with assay buffer. Cell plates were held for 10-15 min at room temperature and were then loaded into the Functional Drug Screening System 6000 (FDSS 6000, Hamamatsu, Japan).
After establishment of a fluorescence baseline for about 3 seconds, the compounds of the present invention were added to the cells, and the response in cells was measured. 2.3 minutes later an EC20 concentration of the mGluR5 receptor agonist glutamate was added to the cells, and the response of the cells was measured for about 1.7 minutes. All test compounds were dissolved and diluted to a concentration of 10 mM in 100% DMSO and then serially diluted into assay buffer for a 2× stock solution in 0.6% DMSO; stock compounds were then added to the assay for a final DMSO concentration of 0.3% after the first addition to the assay well. Calcium fluorescence measures were recorded as fold over basal fluorescence; raw data was then normalized to the maximal response to glutamate. Potentiation of the agonist response of the mGluR5 receptor in the present invention was observed as an increase in response to submaximal concentrations of glutamate in the presence of compound compared to the response to glutamate in the absence of compound.
The concentration-response curves of compounds of the present invention, obtained in the presence of EC20 of mGluR5 receptor agonist glutamate to determine positive allosteric modulation, were generated using Microsoft Excel with IDBS XLFit add-ins. The raw data file containing all time points was used as the data source in the analysis template. This was saved by the FDSS as a tab-delimited text file. Data were normalized using a static ratio function (F/F0) for each measurement of the total 350 values per well divided by each well's initial value. Data was then reduced as to peak amplitudes (Max-Initial Min) using a time range that starts approximately 1 second after the glutamate EC20 addition and continues for approximately 40 seconds. This is sufficient time to capture the peak amplitude of the cellular Calcium response. Individual amplitudes were expressed as % EMax by multiplying each amplitude by 100 and then dividing the product by the mean of the amplitudes derived from the glutamate ECMax-treated wells. pEC50 values for test compounds were generated by fitting the normalized values versus the log of the test compound concentration (in mol/L) using a 4 parameter logistic equation where none of the parameters were fixed. Each of the three values collected at each concentration of test compound were weighted evenly. Individual values falling outside the 95% prediction limits of the curve fit were automatically excluded from the fit. […]

Where only a bound is given, the exact number is not on record here.

human mGluR5, sequence (P41594 21-1180 isoform P41594-2 limits assumed): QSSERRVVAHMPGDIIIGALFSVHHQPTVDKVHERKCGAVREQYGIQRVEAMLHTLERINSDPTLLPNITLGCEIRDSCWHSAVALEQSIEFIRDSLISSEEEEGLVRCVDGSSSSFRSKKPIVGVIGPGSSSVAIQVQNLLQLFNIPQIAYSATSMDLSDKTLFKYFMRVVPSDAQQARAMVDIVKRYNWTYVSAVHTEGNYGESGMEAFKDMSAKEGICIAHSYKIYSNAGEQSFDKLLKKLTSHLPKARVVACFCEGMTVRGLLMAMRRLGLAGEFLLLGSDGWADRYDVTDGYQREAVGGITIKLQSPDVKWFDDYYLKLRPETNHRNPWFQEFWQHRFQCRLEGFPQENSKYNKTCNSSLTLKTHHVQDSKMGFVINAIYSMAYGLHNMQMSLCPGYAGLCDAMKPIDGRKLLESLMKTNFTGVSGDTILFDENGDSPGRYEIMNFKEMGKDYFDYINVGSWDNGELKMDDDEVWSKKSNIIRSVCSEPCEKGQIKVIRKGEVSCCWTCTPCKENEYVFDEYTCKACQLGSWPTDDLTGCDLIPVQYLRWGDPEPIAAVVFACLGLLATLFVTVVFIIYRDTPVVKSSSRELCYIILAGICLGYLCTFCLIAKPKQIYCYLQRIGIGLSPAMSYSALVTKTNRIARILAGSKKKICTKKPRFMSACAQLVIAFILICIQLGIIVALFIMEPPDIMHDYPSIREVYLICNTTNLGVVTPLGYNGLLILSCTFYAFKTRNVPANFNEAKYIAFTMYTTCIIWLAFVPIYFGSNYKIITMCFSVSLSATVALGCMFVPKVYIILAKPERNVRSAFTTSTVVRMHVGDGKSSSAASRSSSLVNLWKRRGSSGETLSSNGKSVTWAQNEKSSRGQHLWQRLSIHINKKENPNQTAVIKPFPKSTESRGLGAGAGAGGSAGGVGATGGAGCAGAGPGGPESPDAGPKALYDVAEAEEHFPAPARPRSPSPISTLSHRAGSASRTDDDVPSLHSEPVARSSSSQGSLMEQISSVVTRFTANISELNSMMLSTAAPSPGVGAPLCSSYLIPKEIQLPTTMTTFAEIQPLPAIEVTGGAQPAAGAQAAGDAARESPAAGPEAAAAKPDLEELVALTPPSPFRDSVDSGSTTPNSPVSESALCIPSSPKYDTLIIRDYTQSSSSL

Consider `O=C1c2cc(COc3ccccc3)nn2CCN1Cc1nc2ccccc2o1` [Example B92], for which the melting point was found to be 145.4 °C. Also, at human mGluR5, the Emax is 65% and the EC50 was 282 nM.
Taken in the same sequence, the figures for `O=C1c2cc(COc3ccccc3)nn2CCN1Cc1cccc2cccnc12` [Example B93] were 131.3 °C, 73% and 25.7 nM.
Taken in the same sequence, the figures for `O=C1c2cc(COc3ccccc3)nn2CCN1Cc1nccc2ccccc12` [Example B94] were 137.6 °C, 76% and 123 nM.
In the case of `O=C1c2cc(COc3ccccc3)nn2CCN1Cc1ccc(C(F)(F)F)nc1` [Example B95], the melting point stood at 115.4 °C. Further, at human mGluR5, the Emax is 75% and the EC50 is 372 nM.
Molecule `Cc1ncccc1CN1CCn2nc(COc3ccccc3)cc2C1=O` [Example B96] gave a melting point of 137.5 °C. For the same molecule, at human mGluR5, the Emax stood at 67% and the EC50 was 1000 nM.
The corresponding values for `Cc1nc(CN2CCn3nc(COc4ccccc4)cc3C2=O)cs1` [Example B97] are 121.9 °C, 65% and 417 nM.
As to `Cn1c(CN2CCn3nc(COc4ccccc4)cc3C2=O)nc2ccccc21` [Example B98], the melting point is more than 300 °C. Also, on human mGluR5, the Emax amounted to 72% and the EC50 is more than 10000 nM.
`COc1ccc(CN2CCn3nc(COc4ccccn4)cc3C2=O)cc1` [Example B101] registered a melting point of 95 °C. For the same molecule, on human mGluR5, the Emax was 68% and the EC50 was 1290 nM.
Taken in the same sequence, the figures for `COc1nccnc1CN1CCn2nc(COc3cccc(F)c3)cc2C1=O` [Example B103] were 154.1 °C, 63% and 324 nM.
As for `O=C1c2cc(COc3cccc(F)c3)nn2CCN1Cc1ncccc1F` [Example B104], the melting point is more than 300 °C. On human mGluR5, the Emax is 65% and the EC50 was 550 nM.
